Measured values: patent publication US12357711B2, “PSMA binding dual mode radiotracer and therapeutic” (Technische Universität München, priority 2019, dated 2025)

System: LNCaP tumor-bearing SCID mice
Test: Biodistribution at 1 h p.i.
Format: in vivo
Conditions: for Biodistribution tumor: LNCaP tumor
Protocol: FIG. 10: Biodistribution (in % ID/g) of ^18E-labeled rhPSMA tracers at 1 h p.i in LNCaP tumor-bearing SCID mice. Data are expressed as mean±SD (n=4 for rhPSMA7.1, n=5 for 7.2, n=4 for 7.3, n=5 for 7.4 and n=3 for 7-rac).

CC(C)(C)[Si](F)(c1ccc(C(=O)NC[C@@H](NC(=O)CC[C@@H](C(=O)O)N2CCN(CC(=O)[O-])CCN(CC(=O)[O-])CCN(CC(=O)[O-])CC2)C(=O)N[C@H](CCCCNC(=O)CCC(=O)NCCC[C@@H](NC(=O)CC[C@H](NC(=O)N[C@@H](CCC(=O)O)C(=O)O)C(=O)O)C(=O)O)C(=O)O)cc1)C(C)(C)C.[Ga+3] [rhPSMA7.3, [^19F][^natGa]D-Dap-S-DOTAGA-rhPSMA7]
Biodistribution adrenals: 2.2 ± 0.83 % ID/g | Biodistribution blood: 0.96 ± 0.24 % ID/g | Biodistribution bone: 0.38 ± 0.32 % ID/g | Biodistribution heart: 0.87 ± 0.17 % ID/g | Biodistribution intestine: 0.35 ± 0.07 % ID/g | Biodistribution kidneys: 292 ± 45.1 % ID/g | Biodistribution liver: 0.69 ± 0.13 % ID/g | Biodistribution lung: 2.2 ± 0.35 % ID/g | Biodistribution muscle: 0.33 ± 0.15 % ID/g | Biodistribution pancreas: 0.63 ± 0.44 % ID/g | Biodistribution spleen: 16.6 ± 2.6 % ID/g | Biodistribution stomach: 0.44 ± 0.23 % ID/g | Biodistribution tumor: 18.3 ± 7.2 % ID/g

[^19F][^natGa]D/L-Dap-R/S-DOTAGA-rhPSMA7 [rhPSMA7-rac]
Biodistribution adrenals: 3.0 ± 0.45 % ID/g | Biodistribution blood: 1.1 ± 0.03 % ID/g | Biodistribution bone: 0.91 ± 0.11 % ID/g | Biodistribution heart: 0.69 ± 0.07 % ID/g | Biodistribution intestine: 0.60 ± 0.27 % ID/g | Biodistribution kidneys: 71.3 ± 13.3 % ID/g | Biodistribution liver: 0.67 ± 0.07 % ID/g | Biodistribution lung: 1.4 ± 0.17 % ID/g | Biodistribution muscle: 0.36 ± 0.06 % ID/g | Biodistribution pancreas: 0.60 ± 0.10 % ID/g | Biodistribution spleen: 11.1 ± 2.3 % ID/g | Biodistribution stomach: 0.49 ± 0.07 % ID/g | Biodistribution tumor: 10.4 ± 0.67 % ID/g
